# Like-named read-outs stand apart in the source and are kept apart here.
# Tests used:
# [1] = system: P388 leukemia cells; test: in vitro cytotoxic activity, P388 cells colony formation; format: cell-based; conditions: for IC50: Mus musculus
# Excerpt: ^(a) Dose giving 50% reduction of cell number in comparison with
# ^(c) P388 leukemia cells.
# [2] = system: HeLa cells; test: in vitro cytotoxic activity, HeLa cells colony formation; format: cell-based, human; conditions: for IC50: HeLa, read-out: ID50 (dose giving 50% reduction of cell number in comparison with untreated controls)
# Excerpt: ^(a) Dose giving 50% reduction of cell number in comparison with […]
# [3] = system: disseminated Gross leukemia; test: in vivo antitumor activity against disseminated Gross leukemia; parameters: species or system C3H mice; conditions: for Toxic deaths (evaluated on the basis of autopsy findings on dead mice): C3H mice; for T/C % (median survival time of treated mice/median survival time of controls × 100): day after tumor injection, in parentheses: single experiments
# Description: The "in vivo" antitumor activity, FCE 24883 (II) was tested against disseminated Gross leukemia. C3H mice were injected intravenously with 2.10^6 cell/mouse and treated with compounds under study 24 hours after the tumor injection.
# ^(a) C3H mice were injected i.v. with 2 × 10^6 leukemia
# cells and treated i.v. with the compounds the day after the tumor
# ^(b) (Median survival time of treated mice/median survival time of
# ^(c) Evaluated on the basis of autopsy findings on dead mice.
# [4] = solubility; format: physicochemical
# [5] = system: experimental tumors; test: activity on experimental tumors (general statement); conditions: in vivo
# [6] = P388 leukemia cells, read-out: ID50 (dose giving 50% reduction of cell number in comparison with untreated controls)
# [7] = human cervix epithelioid carcinoma cells
compound,measurement,setting,value
"COc1cccc2c1C(=O)c1c(O)c3c(c(O)c1C2=O)C[C@@](O)(C(=O)CO)C[C@@H]3O[C@H]1C[C@H](N)[C@H](O)[C@H](C)O1 [DX, Doxorubicin]",IC50,"[1]; P388, read-out: ID50 (dose giving 50% reduction of cell number in comparison with untreated controls)",8 ng/mL
same,IC50,[2]; Homo sapiens,10.8 ng/mL
same,Toxic deaths (evaluated on the basis of autopsy findings on dead mice),[3]; 10 mg/Kg i.v.,0/20
same,T/C % (median survival time of treated mice/median survival time of controls × 100),[3]; 10 mg/Kg i.v.,"200 (200, 200) %"
same,Toxic deaths (evaluated on the basis of autopsy findings on dead mice),[3]; 13 mg/Kg i.v.,0/20
same,T/C % (median survival time of treated mice/median survival time of controls × 100),[3]; 13 mg/Kg i.v.,"225 (230, 220) %"
same,Toxic deaths (evaluated on the basis of autopsy findings on dead mice),[3]; 16.9 mg/Kg i.v.,2/20
same,T/C % (median survival time of treated mice/median survival time of controls × 100),[3]; 16.9 mg/Kg i.v.,"250 (260, 240) %"
"COc1cccc2c1C(=O)c1c(O)c3c(c(O)c1C2=O)C[C@@](O)(C(=O)CO)C[C@@H]3O[C@H]1C[C@H](N)[C@H](I)[C@H](C)O1 [FCE 21954 (I), 4'-deoxy-4'-iododoxorubicin]",IC50,[1]; [6],2.1 ng/mL
same,IC50,[2]; [7],10.4 ng/mL
same,Toxic deaths (evaluated on the basis of autopsy findings on dead mice),[3]; 4 mg/Kg i.v.,0/20
same,T/C % (median survival time of treated mice/median survival time of controls × 100),[3]; 4 mg/Kg i.v.,"240 (240, 240) %"
same,Toxic deaths (evaluated on the basis of autopsy findings on dead mice),[3]; 5.2 mg/Kg i.v.,4/20
same,T/C % (median survival time of treated mice/median survival time of controls × 100),[3]; 5.2 mg/Kg i.v.,"260 (260, 260) %"
same,Toxic deaths (evaluated on the basis of autopsy findings on dead mice),[3]; 6.8 mg/Kg i.v.,19/20
same,T/C % (median survival time of treated mice/median survival time of controls × 100),[3]; 6.8 mg/Kg i.v.,"145 (160, 130) %"
"COc1cccc2c1C(=O)c1c(O)c3c(c(O)c1C2=O)C[C@@](O)([C@@H](O)CO)C[C@@H]3O[C@H]1C[C@H](N)[C@H](I)[C@H](C)O1 [FCE 24883 (II), 4'-deoxy-13(S)-dihydro-4'-iododoxorubicin]",IC50,[1]; [6],3.5 ng/mL
same,"cytotoxic activity, potency in comparison with compound I and doxorubicin","[1]; P388 cells, in vitro",as potent as 4'-deoxy-4'-iododoxorubicin (I) and doxorubicin
same,"cytotoxic activity, potency in comparison with compound I and doxorubicin","[2]; HeLa cells, in vitro",as potent as 4'-deoxy-4'-iododoxorubicin (I) and doxorubicin
same,IC50,[2]; [7],8 ng/mL
same,Toxic deaths (evaluated on the basis of autopsy findings on dead mice),[3]; 4 mg/Kg i.v.,0/10
same,T/C % (median survival time of treated mice/median survival time of controls × 100),[3]; 4 mg/Kg i.v.,180 (180) %
same,Toxic deaths (evaluated on the basis of autopsy findings on dead mice),[3]; 5.2 mg/Kg i.v.,0/20
same,T/C % (median survival time of treated mice/median survival time of controls × 100),[3]; 5.2 mg/Kg i.v.,"220 (220, 220) %"
same,Toxic deaths (evaluated on the basis of autopsy findings on dead mice),[3]; 6.8 mg/Kg i.v.,0/20
same,T/C % (median survival time of treated mice/median survival time of controls × 100),[3]; 6.8 mg/Kg i.v.,"220 (220, 220) %"
same,Toxic deaths (evaluated on the basis of autopsy findings on dead mice),[3]; 8.8 mg/Kg i.v.,5/9
same,T/C % (median survival time of treated mice/median survival time of controls × 100),[3]; 8.8 mg/Kg i.v.,140 (140) %
same,toxicity displayed,[3]; at the active doses,minor toxicity
same,antitumor potency in comparison with compound I,[3]; at the optimal dose,as potent as 4'-deoxy-4'-iododoxorubicin (I)
same,antitumor potency in comparison with doxorubicin,[3]; at the optimal dose,more potent than doxorubicin
same,"antitumor activity, evaluated as median survival time of treated over control mice, in comparison with I and doxorubicin","[3]; mouse, in vivo",can be compared with those of I and doxorubicin
same,solubility of the free base,"[4]; free base, polar organic solvents and aqueous alcohols",soluble in polar organic solvents and aqueous alcohols
same,solubility of the hydrochloride in organic solvents,"[4]; hydrochloride, organic solvents",slighty soluble in organic solvents
same,solubility of the hydrochloride in water and lower alcohols,"[4]; hydrochloride, water and lower alcohols",soluble in water and lower alcohols
same,activity on experimental tumors in comparison with compound I,[5],comparable with that of 4'-deoxy-4'-iododoxorubicin (I)
